Measurements published in PMC6199744, “Development of Chemical Proteomics for the Folateome and Analysis of the Kinetoplastid Folateome” (ACS Infectious Diseases, 2018).
Like-named read-outs stand apart in the source and are kept apart here.

What was measured:
Type in all cases: binding
[1] = target: T1, HeLa cell extract proteins (Homo sapiens, UniProt P31040)
T1 construct: endogenous in cells; host or cells: HeLa cell extract

[2] = target: T2, HeLa cell extract proteins (Homo sapiens, UniProt Q9BQA1)
T2 construct: endogenous in cells; host or cells: HeLa cell extract

[3] = target: T3, HeLa cell extract proteins (Homo sapiens, UniProt Q9NVE7)
T3 construct: endogenous in cells; host or cells: HeLa cell extract
T3 sequence (Q9NVE7 1-773): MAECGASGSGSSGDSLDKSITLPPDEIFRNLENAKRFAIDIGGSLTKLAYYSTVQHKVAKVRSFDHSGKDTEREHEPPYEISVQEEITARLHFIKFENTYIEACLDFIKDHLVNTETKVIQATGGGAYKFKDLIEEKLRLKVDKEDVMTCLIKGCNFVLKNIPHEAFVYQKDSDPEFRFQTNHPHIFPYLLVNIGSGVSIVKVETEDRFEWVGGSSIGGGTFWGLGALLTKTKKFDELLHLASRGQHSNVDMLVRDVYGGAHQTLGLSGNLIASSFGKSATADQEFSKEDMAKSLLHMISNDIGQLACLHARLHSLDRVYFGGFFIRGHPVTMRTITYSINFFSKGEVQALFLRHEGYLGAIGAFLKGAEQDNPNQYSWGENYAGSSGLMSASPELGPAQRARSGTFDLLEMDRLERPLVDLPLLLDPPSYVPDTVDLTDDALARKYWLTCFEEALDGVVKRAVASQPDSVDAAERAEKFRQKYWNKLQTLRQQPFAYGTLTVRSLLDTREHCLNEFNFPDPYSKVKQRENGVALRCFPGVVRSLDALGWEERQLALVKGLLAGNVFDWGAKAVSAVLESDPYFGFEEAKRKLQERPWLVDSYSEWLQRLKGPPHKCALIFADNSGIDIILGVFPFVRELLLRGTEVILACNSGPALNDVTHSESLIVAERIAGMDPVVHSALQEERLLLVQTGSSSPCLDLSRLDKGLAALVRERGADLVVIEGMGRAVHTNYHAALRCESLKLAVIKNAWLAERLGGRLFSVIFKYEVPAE

[4] = target: T4, HeLa cell extract proteins (Homo sapiens, UniProt P53992)
T4 construct: endogenous in cells; host or cells: HeLa cell extract
T4 sequence (P53992 1-1094): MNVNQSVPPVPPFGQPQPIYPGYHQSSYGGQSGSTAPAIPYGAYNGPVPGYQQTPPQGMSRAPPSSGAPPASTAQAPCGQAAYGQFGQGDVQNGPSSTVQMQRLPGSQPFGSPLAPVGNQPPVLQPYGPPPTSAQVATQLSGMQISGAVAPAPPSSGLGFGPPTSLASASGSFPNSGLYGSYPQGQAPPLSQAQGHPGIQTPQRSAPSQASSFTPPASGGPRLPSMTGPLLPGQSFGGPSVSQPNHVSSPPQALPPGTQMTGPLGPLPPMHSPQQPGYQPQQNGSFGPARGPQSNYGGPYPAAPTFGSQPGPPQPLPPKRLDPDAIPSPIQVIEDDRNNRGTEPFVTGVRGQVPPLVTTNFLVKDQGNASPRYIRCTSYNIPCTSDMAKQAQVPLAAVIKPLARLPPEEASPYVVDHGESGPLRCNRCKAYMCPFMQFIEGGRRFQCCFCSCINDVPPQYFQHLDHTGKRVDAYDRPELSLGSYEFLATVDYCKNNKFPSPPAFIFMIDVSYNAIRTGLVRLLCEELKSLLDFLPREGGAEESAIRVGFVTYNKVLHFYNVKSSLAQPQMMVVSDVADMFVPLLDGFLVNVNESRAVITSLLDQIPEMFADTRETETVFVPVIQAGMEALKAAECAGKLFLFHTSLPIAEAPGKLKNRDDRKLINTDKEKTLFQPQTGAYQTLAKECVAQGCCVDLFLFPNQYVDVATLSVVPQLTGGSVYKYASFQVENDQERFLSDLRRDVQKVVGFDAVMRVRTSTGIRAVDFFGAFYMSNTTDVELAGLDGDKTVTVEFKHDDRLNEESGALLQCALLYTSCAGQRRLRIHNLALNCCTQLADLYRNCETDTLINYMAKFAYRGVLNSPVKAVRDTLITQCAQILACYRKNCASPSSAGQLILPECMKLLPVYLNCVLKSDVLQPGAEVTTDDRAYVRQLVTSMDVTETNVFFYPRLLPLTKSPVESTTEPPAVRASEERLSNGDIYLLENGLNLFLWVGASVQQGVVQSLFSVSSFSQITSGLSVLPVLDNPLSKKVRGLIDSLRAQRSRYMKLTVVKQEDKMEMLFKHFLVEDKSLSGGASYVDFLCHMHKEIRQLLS

[5] = target: T5, HeLa cell extract proteins (Homo sapiens, UniProt Q01105)
T5 construct: endogenous in cells; host or cells: HeLa cell extract

[6] = target: T6, HeLa cell extract proteins (Homo sapiens, UniProt Q9HB07)
T6 construct: endogenous in cells; host or cells: HeLa cell extract
T6 sequence (Q9HB07 48-376): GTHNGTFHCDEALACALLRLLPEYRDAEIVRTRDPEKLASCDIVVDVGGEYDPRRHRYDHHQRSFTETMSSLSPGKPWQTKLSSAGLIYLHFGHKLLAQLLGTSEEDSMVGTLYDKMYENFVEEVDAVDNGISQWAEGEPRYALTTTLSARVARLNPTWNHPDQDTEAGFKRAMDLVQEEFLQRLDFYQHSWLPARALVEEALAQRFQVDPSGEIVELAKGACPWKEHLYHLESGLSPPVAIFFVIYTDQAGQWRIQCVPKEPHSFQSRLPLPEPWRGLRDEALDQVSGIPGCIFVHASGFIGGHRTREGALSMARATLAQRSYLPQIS

[7] = target: T7, HeLa cell extract proteins (Homo sapiens, UniProt P35270)
T7 construct: endogenous in cells; host or cells: HeLa cell extract

[8] = target: T8, HeLa cell extract proteins (Homo sapiens, UniProt Q14974)
T8 construct: endogenous in cells; host or cells: HeLa cell extract

[9] = target: T9, HeLa cell extract proteins (Homo sapiens, UniProt P15559)
T9 construct: endogenous in cells; host or cells: HeLa cell extract

[10] = HeLa, captured protein C12ORF10
[11] = HeLa, protein SET (ISOFORM 1 OF PROTEIN SET.)
[12] = captured protein C12ORF10, HeLa

T1 sequence (P31040 43-664): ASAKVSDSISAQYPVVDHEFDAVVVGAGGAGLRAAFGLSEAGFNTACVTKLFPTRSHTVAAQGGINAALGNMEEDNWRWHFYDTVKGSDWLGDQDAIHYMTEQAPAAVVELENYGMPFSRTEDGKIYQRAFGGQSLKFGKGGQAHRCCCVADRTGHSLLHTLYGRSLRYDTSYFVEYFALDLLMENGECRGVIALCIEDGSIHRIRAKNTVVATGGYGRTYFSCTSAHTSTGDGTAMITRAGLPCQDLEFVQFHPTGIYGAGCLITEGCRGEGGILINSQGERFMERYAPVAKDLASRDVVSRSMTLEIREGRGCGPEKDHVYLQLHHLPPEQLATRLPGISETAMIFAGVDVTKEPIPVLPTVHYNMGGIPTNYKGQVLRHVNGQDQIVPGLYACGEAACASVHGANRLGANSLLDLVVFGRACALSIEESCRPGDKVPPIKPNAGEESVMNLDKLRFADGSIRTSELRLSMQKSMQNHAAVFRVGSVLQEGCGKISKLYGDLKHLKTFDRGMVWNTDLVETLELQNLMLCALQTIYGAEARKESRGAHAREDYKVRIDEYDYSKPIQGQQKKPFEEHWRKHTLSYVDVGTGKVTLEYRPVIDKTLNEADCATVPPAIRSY
T9 sequence (P15559 whole entry): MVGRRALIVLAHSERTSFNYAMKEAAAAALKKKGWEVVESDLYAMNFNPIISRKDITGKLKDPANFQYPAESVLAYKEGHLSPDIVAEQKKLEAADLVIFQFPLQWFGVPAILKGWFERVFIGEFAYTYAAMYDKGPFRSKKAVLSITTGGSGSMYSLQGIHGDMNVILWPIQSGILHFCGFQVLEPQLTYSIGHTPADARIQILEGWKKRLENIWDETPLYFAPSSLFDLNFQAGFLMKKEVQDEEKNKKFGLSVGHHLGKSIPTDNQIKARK
T2 sequence (Q9BQA1 whole entry): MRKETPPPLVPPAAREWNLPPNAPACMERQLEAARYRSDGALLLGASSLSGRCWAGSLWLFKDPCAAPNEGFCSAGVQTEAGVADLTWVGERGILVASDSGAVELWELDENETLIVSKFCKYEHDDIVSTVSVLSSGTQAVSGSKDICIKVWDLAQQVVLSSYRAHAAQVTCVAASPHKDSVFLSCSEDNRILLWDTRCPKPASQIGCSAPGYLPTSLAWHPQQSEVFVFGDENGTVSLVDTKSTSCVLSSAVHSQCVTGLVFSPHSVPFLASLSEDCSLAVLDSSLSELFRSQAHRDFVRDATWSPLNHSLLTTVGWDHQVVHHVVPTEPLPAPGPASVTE
T8 sequence (Q14974 whole entry): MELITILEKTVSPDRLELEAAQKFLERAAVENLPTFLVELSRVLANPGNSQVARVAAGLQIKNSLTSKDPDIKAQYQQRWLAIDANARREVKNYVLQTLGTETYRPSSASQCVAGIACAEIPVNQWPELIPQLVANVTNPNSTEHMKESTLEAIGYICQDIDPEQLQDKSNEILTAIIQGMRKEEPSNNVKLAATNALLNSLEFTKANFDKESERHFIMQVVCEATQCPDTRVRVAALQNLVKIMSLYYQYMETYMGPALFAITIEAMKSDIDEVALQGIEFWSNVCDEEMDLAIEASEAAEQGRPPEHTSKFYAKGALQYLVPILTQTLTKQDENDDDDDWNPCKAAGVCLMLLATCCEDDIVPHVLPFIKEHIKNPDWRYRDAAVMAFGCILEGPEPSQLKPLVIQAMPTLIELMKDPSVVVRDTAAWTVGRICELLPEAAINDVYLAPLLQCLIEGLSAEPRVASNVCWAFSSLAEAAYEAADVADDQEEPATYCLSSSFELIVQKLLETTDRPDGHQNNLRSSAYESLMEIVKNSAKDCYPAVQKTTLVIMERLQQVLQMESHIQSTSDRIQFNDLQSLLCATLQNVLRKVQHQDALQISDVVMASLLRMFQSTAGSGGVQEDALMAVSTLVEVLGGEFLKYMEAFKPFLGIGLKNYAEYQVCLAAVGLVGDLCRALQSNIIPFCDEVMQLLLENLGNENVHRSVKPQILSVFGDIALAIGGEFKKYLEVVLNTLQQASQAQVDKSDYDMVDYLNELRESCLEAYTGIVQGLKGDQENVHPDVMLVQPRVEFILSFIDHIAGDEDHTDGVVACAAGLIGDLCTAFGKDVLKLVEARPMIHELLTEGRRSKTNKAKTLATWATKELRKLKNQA
T7 sequence (P35270 whole entry): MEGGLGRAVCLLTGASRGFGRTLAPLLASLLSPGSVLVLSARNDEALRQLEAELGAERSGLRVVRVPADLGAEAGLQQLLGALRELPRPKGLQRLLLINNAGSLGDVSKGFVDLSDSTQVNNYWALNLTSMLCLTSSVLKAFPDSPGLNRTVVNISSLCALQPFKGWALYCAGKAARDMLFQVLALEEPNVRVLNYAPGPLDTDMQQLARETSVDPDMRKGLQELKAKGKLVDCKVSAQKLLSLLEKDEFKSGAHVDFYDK
T5 sequence (Q01105 whole entry): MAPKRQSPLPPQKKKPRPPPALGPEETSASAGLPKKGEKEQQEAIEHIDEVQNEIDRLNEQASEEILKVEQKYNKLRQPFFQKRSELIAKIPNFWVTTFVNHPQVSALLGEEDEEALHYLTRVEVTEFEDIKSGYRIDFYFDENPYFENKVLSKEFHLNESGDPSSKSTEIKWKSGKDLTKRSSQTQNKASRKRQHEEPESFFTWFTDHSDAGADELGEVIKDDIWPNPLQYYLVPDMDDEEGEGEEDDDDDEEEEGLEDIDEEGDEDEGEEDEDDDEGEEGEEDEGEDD

Q: How did the “fold changes relative to vehicle control” value ([1]; HeLa, captured protein SDHA) turn out when `Nc1nc2c(c(=O)[nH]1)N(C=O)C(CNc1ccc(C(=O)N[C@@H](CCC(=O)O)C(=O)O)cc1)CN2` (stereo partly drawn) [LEU, leucovorin] was run?
A: Its value is 1.

Q: What about the “fold changes relative to vehicle control” value ([2]; HeLa, protein WDR77) of the same molecule?
A: The value was 0.83.

Q: And the “fold changes relative to vehicle control” value ([3]; HeLa, captured protein PANK4)?
A: Its value is 0.97.

Q: And the “fold changes relative to vehicle control” value ([4]; HeLa, protein SEC24C)?
A: The value was 0.98.

Q: And the “fold changes relative to vehicle control” value ([5]; HeLa, captured protein SET)?
A: Its value is 0.98.

Q: And the “fold changes relative to vehicle control” value [6, 10]?
A: Its value is 1.08.

Q: And the “fold changes relative to vehicle control” value ([7]; HeLa, protein SPR)?
A: The value was 0.92.

Q: And the “fold changes relative to vehicle control” value ([8]; HeLa, protein KPNB1)?
A: Its value is 0.99.

Q: What about the “fold changes relative to vehicle control” value ([9]; protein NQO1, HeLa) of the same molecule?
A: The value was 1.12.

Q: How did the “fold changes relative to vehicle control” value [1] turn out when `Nc1nc2[nH]cc(CCc3ccc(C(=O)N[C@@H](CCC(=O)O)C(=O)O)cc3)c2c(=O)[nH]1` [PTX, pemetrexed] was run?
A: Its value is 0.97.

Q: What about the “fold changes relative to vehicle control” value [2] of the same molecule?
A: Its value is 0.81.

Q: And the “fold changes relative to vehicle control” value [3]?
A: Its value is 0.93.

Q: And the “fold changes relative to vehicle control” value [4]?
A: The value was 0.96.

Q: What about the “fold changes relative to vehicle control” value [5] of the same molecule?
A: Its value is 1.08.

Q: What about the “fold changes relative to vehicle control” value [6] of the same molecule?
A: The value was 0.33.

Q: And the “fold changes relative to vehicle control” value [7]?
A: The value was 0.86.

Q: What about the “fold changes relative to vehicle control” value [8] of the same molecule?
A: Its value is 1.06.

Q: What about the “fold changes relative to vehicle control” value [9] of the same molecule?
A: The value was 0.92.

Q: `CCCCCCOc1ccc(Cc2cnc(N)nc2N)cc1` [compound 1] was tested. Which “fold changes relative to vehicle control” value ([1]; protein SDHA, HeLa) did it give?
A: Its value is 1.19.

Q: What about the “fold changes relative to vehicle control” value ([2]; protein WDR77, HeLa) of the same molecule?
A: The value was 1.12.

Q: What about the “fold changes relative to vehicle control” value ([3]; captured protein PANK4, HeLa) of the same molecule?
A: Its value is 0.98.

Q: And the “fold changes relative to vehicle control” value ([4]; protein SEC24C, HeLa)?
A: Its value is 1.03.

Q: And the “fold changes relative to vehicle control” value [5, 11]?
A: Its value is 2.11 fold.

Q: What about the “fold changes relative to vehicle control” value [6, 12] of the same molecule?
A: Its value is 1.05.

Q: And the “fold changes relative to vehicle control” value ([7]; protein SPR, HeLa)?
A: The value was 1.03.

Q: And the “fold changes relative to vehicle control” value ([8]; protein KPNB1, HeLa)?
A: The value was 1.09.

Q: What about the “fold changes relative to vehicle control” value ([9]; HeLa, protein NQO1) of the same molecule?
A: The value was 1.12.

Q: How did the “fold changes relative to vehicle control” value ([1]; protein SDHA, HeLa) turn out when `CCCCCCOc1cccc(Cc2cnc(N)nc2N)c1` [compound 2] was run?
A: The value was 1.2.

Q: What about the “fold changes relative to vehicle control” value ([2]; protein WDR77, HeLa) of the same molecule?
A: The value was 1.33.

Q: And the “fold changes relative to vehicle control” value ([3]; captured protein PANK4, HeLa)?
A: The value was 1.12.

Q: And the “fold changes relative to vehicle control” value ([4]; protein SEC24C, HeLa)?
A: Its value is 1.01.

Q: What about the “fold changes relative to vehicle control” value [5, 11] of the same molecule?
A: Its value is 3.28 fold.

Q: What about the “fold changes relative to vehicle control” value [6, 12] of the same molecule?
A: Its value is 1.06.

Q: What about the “fold changes relative to vehicle control” value ([7]; protein SPR, HeLa) of the same molecule?
A: Its value is 1.21.

Q: And the “fold changes relative to vehicle control” value ([8]; protein KPNB1, HeLa)?
A: The value was 1.6.

Q: What about the “fold changes relative to vehicle control” value ([9]; HeLa, protein NQO1) of the same molecule?
A: The value was 1.22.

Q: `Nc1nc2cccc(-c3ccccc3)c2n1Cc1ccc(Cl)c(Cl)c1` [compound 3] was tested. Which “fold changes relative to vehicle control” value ([1]; protein SDHA, HeLa) did it give?
A: The value was 1.02.

Q: What about the “fold changes relative to vehicle control” value ([2]; protein WDR77, HeLa) of the same molecule?
A: The value was 1.

Q: What about the “fold changes relative to vehicle control” value ([3]; captured protein PANK4, HeLa) of the same molecule?
A: The value was 1.02.

Q: What about the “fold changes relative to vehicle control” value ([4]; protein SEC24C, HeLa) of the same molecule?
A: Its value is 1.28.

Q: And the “fold changes relative to vehicle control” value [5, 11]?
A: The value was 0.9 fold.

Q: What about the “fold changes relative to vehicle control” value [6, 12] of the same molecule?
A: The value was 1.04.

Q: And the “fold changes relative to vehicle control” value ([7]; protein SPR, HeLa)?
A: The value was 1.12.

Q: What about the “fold changes relative to vehicle control” value ([8]; protein KPNB1, HeLa) of the same molecule?
A: The value was 0.97.

Q: What about the “fold changes relative to vehicle control” value ([9]; HeLa, protein NQO1) of the same molecule?
A: Its value is 1.13.

Q: For `NCCOCCOCC(=O)Nc1nc2ncc(CNc3ccc(C(=O)NC(CCC(=O)O)C(=O)O)cc3)nc2c(=O)[nH]1` (stereo not drawn) [compound 6], which “fold changes relative to vehicle control” value ([1]; HeLa, captured protein SDHA) is on record?
A: Its value is 1.06.

Q: And the “fold changes relative to vehicle control” value ([2]; HeLa, protein WDR77)?
A: Its value is 1.03.

Q: And the “fold changes relative to vehicle control” value ([3]; HeLa, captured protein PANK4)?
A: Its value is 0.96.

Q: What about the “fold changes relative to vehicle control” value ([4]; HeLa, protein SEC24C) of the same molecule?
A: The value was 0.92.

Q: And the “fold changes relative to vehicle control” value ([5]; HeLa, captured protein SET)?
A: The value was 1.16.

Q: And the “fold changes relative to vehicle control” value [6, 10]?
A: The value was 0.78.

Q: And the “fold changes relative to vehicle control” value ([7]; HeLa, protein SPR)?
A: Its value is 0.92.

Q: And the “fold changes relative to vehicle control” value ([8]; HeLa, protein KPNB1)?
A: Its value is 1.13.

Q: And the “fold changes relative to vehicle control” value ([9]; protein NQO1, HeLa)?
A: The value was 0.6.

Q: With `NCCCNc1ccc(C(=O)NC(CCC(=O)O)C(=O)O)cc1` (stereo not drawn) [compound 7] as the molecule, how does the “fold changes relative to vehicle control” value ([1]; HeLa, captured protein SDHA) read?
A: Its value is 0.92.

Q: And the “fold changes relative to vehicle control” value ([2]; HeLa, protein WDR77)?
A: The value was 0.96.

Q: And the “fold changes relative to vehicle control” value ([3]; HeLa, captured protein PANK4)?
A: The value was 1.04.

Q: What about the “fold changes relative to vehicle control” value ([4]; HeLa, protein SEC24C) of the same molecule?
A: Its value is 1.14.

Q: And the “fold changes relative to vehicle control” value ([5]; HeLa, captured protein SET)?
A: The value was 0.84.

Q: And the “fold changes relative to vehicle control” value [6, 10]?
A: The value was 1.12.

Q: And the “fold changes relative to vehicle control” value ([7]; HeLa, protein SPR)?
A: Its value is 0.95.

Q: What about the “fold changes relative to vehicle control” value ([8]; HeLa, protein KPNB1) of the same molecule?
A: Its value is 0.89.

Q: What about the “fold changes relative to vehicle control” value ([9]; protein NQO1, HeLa) of the same molecule?
A: Its value is 2.36.
